Test results from ChEMBL document CHEMBL1649459, “Analysis of cell membrane characteristics of in vitro-selected daptomycin-resistant strains of methicillin-resistant Staphylococcus aureus” (2009).
In brackets after ≈: the same amount, converted by molar mass.

Tests used:
Assay type in all cases: functional
Staphylococcus aureus [1] = assay: Antimicrobial activity against methicillin-resistant Staphylococcus aureus MW2 CB1118 by Etest method
Staphylococcus aureus [2] = assay: Antimicrobial activity against methicillin-resistant Staphylococcus aureus MW2 CB2201 after 1-day passage containing sublethal concentration of compound by Etest method; details: MW2 CB2201, 24 h
Staphylococcus aureus [3] = assay: Antimicrobial activity against methicillin-resistant Staphylococcus aureus MW2 CB2202 harboring […] MprF T345I mutant after 5-day passage containing sublethal concentration of compound by Etest method; details: MW2 CB2202, 120 h
Staphylococcus aureus [4] = assay: Antimicrobial activity against methicillin-resistant Staphylococcus aureus MW2 CB2203 harboring […] MprF T345I, RpoB I953S mutant after 14-day passage containing sublethal concentration of compound by Etest method; details: MW2 CB2203, 336 h
Staphylococcus aureus [5] = assay: Antimicrobial activity against methicillin-resistant Staphylococcus aureus MW2 CB2205 harboring […] MprF T345I, RpoB I953S,YycG S221P mutant after 20-day passage containing sublethal concentration of compound by Etest method; details: MW2 CB2205, 480 h

CCCCCCCCCC(=O)N[C@@H](Cc1c[nH]c2ccccc12)C(=O)N[C@H](CC(N)=O)C(=O)N[C@@H](CC(=O)O)C(=O)N[C@@H]1C(=O)NCC(=O)N[C@@H](CCCN)C(=O)N[C@@H](CC(=O)O)C(=O)N[C@H](C)C(=O)N[C@@H](CC(=O)O)C(=O)NCC(=O)N[C@H](CO)C(=O)N[C@@H]([C@H](C)CC(=O)O)C(=O)N[C@@H](CC(=O)c2ccccc2N)C(=O)O[C@@H]1C
MIC (Staphylococcus aureus [1]): 1 µg/mL (≈ 0.617 µM)
MIC (Staphylococcus aureus [2]): 1.5 µg/mL (≈ 0.926 µM)
MIC (Staphylococcus aureus [3]): 3 µg/mL (≈ 1.85 µM)
MIC (Staphylococcus aureus [4]): 6 µg/mL (≈ 3.7 µM)
MIC (Staphylococcus aureus [5]): 12 µg/mL (≈ 7.4 µM)
